Experimental findings from patent publication EP0652769B1, “VACCINES AGAINST METAZOAN PARASITES” (MALLINCKRODT VETERINARY, INC., priority 1992, dated 1994) are described below.

Values joined by “and” are separate entries in the source; they are usually repeats but may differ in a detail not shown here. Equal values may be shown once. Square brackets hold non-standard residues; d marks the D form. Peptide text beside a SMILES is read from it. * marks the point of attachment. Sta = CC(C)C[C@H](N)[C@@H](O)CC(=O)O; Isovaleryl = CC(C)CC(=O)*

Test [1] relates to H-gal-GP. Kind of test: Inhibitor sensitivity of protease activity. Format: biochemical, H. contortus. The following applies: peanut lectin purified H-gal-GP; means of 4 separate observations. How it is done:
The optimum pH for this activity was determined over the pH range 4 to 9 using overlapping 0.1M acetate, phosphate or Tris buffers (Fig. 8). Optimal activity was found between pH 4.5 and 6.5. ii) Inhibitor sensitivity The inhibitor sensitivity of the proteinase activity was tested with 4 separate preparations of peanut lectin purified H-gal-GP. […]

Test [2] concerns H-gal-GP. In words: Azocasein proteolysis by H-gal-GP at pH 7 with a panel of proteinase inhibitors (neutral endopeptidase-like activity). Format: biochemical, H.contortus. The following applies: inhibitor 1mM, overnight at 37°C. How it is done:
Proteinase activity was determined using azocasein as substrate in a microassay system. H-gal-GP (approximately 5ug in 20µl) was preincubated for 3Omin at 37°C with 2OOµl sterile 0.1M phosphate buffer, pH 7.0 containing no inhibitor (control), or inhibitor to a final concentration of 1mM. Inhibitors used were prepared as 100mM stock solutions in water except for 4-hydroxymercuribenzoate (4HMB) and pepstatin which were dissolved in methanol. Inhibitors tested were dithiothreitol (DTT); L-cysteine; reduced glutathione; 4HMB; N-ethylmaleimide; EDTA; 1,10 phenanthroline and pepstatin and were all purchased from Sigma. After preincubation 20µl azocasein (5mg/ml in sterile distilled water; Sigma) was added and the reaction mixtures incubated overnight at 37°C. Parallel blanks containing sterile water instead of H-gal-GP were included for each inhibitor tested and assays were performed in duplicate. The reactions were stopped by addition of an equal volume of 1M perchloric acid (BDH chemicals) and retained on ice for 15min to precipitate undigested protein which was subsequently pelleted by brief centrifugation at 11000g using a microfuge. The 0D₄₀₅ of the supernatant was determined using a "Monarch" microcentrifugal analyser (Instrumentation Laboratory, Warrington, UK). After subtraction of the appropriate reagent blank the degree of inhibition was expressed as the percent activity remaining compared to the control reaction.

The test system of test [3] is Oo-gal-GP. Kind of test: Inhibitor sensitivity of protease activity. Format: biochemical, O.ostertagi. The following applies: means of 2 observations.
Test [4] concerns Oc-gal-GP. In words: Inhibitor sensitivity of protease activity. It is filed as biochemical, O.circumcincta. The note with it: means of 2 observations.
Test [5] concerns extracts of adult T.vitrinus. In words: Proteolytic activity of worm extracts in the presence of pepstatin. Format: biochemical. From the text: Proteolytic activity in extracts of adult T.vitrinus was reduced by 40% in the presence of pepstatin. […] These observations indicate that T.vitrinus also contains aspartyl proteinase activity similar to Haemonchus and Ostertagia spp.

Test [6] addresses Haemonchus galactose-containing glycoprotein complex (H-gal-GP) (Haemonchus contortus). Kind of test: cell-based or functional assay.
The target of test [7] is Ostertagia ostertagi galactose-containing glycoprotein complex (Oo-gal-GP) (Ostertagia ostertagi). In words: cell-based or functional assay.
Test [8] concerns the target Ostertagia circumcincta galactose containing glycoprotein complex (Oc-gal-GP) (Ostertagia circumcincta). In words: cell-based or functional assay.
[9] abbreviates: first analysis, 0.1M phosphate buffer.
The mark [10] stands for this setting: second analysis, same batch of H-gal-GP.

As for `O=C(O)CN(CCN(CC(=O)O)CC(=O)O)CC(=O)O` [EDTA], in test [1], the “percent activity remaining in the presence of inhibitor” value was determined as 97.8%. For the same molecule, the “% activity remaining” value in test [2] (setting [9]) is on record as 25%; in test [2] (setting [10]), 10%.
On to `c1cnc2c(c1)ccc1cccnc12` [1, 10 Phenanthroline, 1,10 phenanthroline], for which the “percent activity remaining in the presence of inhibitor” value came out at 99% in test [3], 94% in test [4] and 97% in test [1]. The “% activity remaining” value in test [2] (setting [9]) stood at 26%; in test [2] (setting [10]), 23%.
Take `CC(C)CC(=O)N[C@H](C(=O)N[C@H](C(=O)N[C@@H](CC(C)C)[C@@H](O)CC(=O)N[C@@H](C)C(=O)N[C@@H](CC(C)C)[C@@H](O)CC(=O)O)C(C)C)C(C)C` [Pepstatin, pepstatin] (Isovaleryl-VV[Sta]A[Sta]-OH): the Proteolytic activity reduced in test [5] was determined as 40%. The “percent activity remaining in the presence of inhibitor” value in test [3] came out at 0%; in test [4], 23%; in test [1] it was 8.5%. For the same molecule, the entries for the “% activity remaining” value in test [2] (setting [9]) and in test [2] (setting [10]) were 75% and 85%, respectively.
On to `N[C@@H](CCC(=O)N[C@@H](CS)C(=O)NCC(=O)O)C(=O)O` [Glutathione, reduced glutathione], for which the “% activity remaining” value in test [2] (setting [9]) was 87%; in test [2] (setting [10]) it was 85%.
In the case of `CCN1C(=O)C=CC1=O` [N-ethylmaleimide], the figures for the “% activity remaining” value in test [2] (setting [9]) and in test [2] (setting [10]) were 74% and 77%, respectively.
Regarding `N[C@@H](CS)C(=O)O` [Cysteine, L-cysteine], the “% activity remaining” value in test [2] (setting [10]) turned out to be 0%.
Consider `O=S(=O)(F)Cc1ccccc1` [PMSF], for which the “percent activity remaining in the presence of inhibitor” value in test [3] worked out at 84%; in test [4] it was 104%; in test [1] it was 100%.
For the molecule `O=C([O-])c1cc[c]([Hg][OH])cc1` [4-hydroxymercuribenzoate], the “% activity remaining” value came to 88% in test [2] (setting [9]) and 91% in test [2] (setting [10]).
Regarding “Serum of control lamb (injected with adjuvant only) (antibody)”, in test [6], the % Inhibition of Proteolysis (Assay 1) was 0% and the % Inhibition of Proteolysis (Assay 2) worked out at 2%.
On to `CC(C)C[C@H](NC(=O)[C@H]1O[C@@H]1C(=O)O)C(=O)NCCCCN=C(N)N` [E64], for which the “percent activity remaining in the presence of inhibitor” value in test [3] turned out to be 101%; in test [4], 101%; in test [1], 87.8%.
On to `O[C@H](CS)[C@H](O)CS` (racemic) [Dithiothreitol, dithiothreitol], for which the “% activity remaining” value in test [2] (setting [9]) worked out at 48%; in test [2] (setting [10]) it was 44%.
With pepstatin (peptide), the percent activity remaining in the presence of inhibitor in test [7] was determined as 0%; in test [6], 8.5%; in test [8] it was 23%. Also, the % activity remaining (azocasein proteolysis at pH7) in test [6] was 75% and 85%.
